# Laboratory results published in US7977328B2, “Heteroaryl benzamide derivatives for use as GLK activators in the treatment of diabetes” (AstraZeneca AB, priority 2005, dated 2011).
# How the values were obtained:
# [1] = biological target: T1, recombinant human pancreatic GLK (Homo sapiens, UniProt P35557); assay: biochemical
# T1 sequence (P35557 1-465): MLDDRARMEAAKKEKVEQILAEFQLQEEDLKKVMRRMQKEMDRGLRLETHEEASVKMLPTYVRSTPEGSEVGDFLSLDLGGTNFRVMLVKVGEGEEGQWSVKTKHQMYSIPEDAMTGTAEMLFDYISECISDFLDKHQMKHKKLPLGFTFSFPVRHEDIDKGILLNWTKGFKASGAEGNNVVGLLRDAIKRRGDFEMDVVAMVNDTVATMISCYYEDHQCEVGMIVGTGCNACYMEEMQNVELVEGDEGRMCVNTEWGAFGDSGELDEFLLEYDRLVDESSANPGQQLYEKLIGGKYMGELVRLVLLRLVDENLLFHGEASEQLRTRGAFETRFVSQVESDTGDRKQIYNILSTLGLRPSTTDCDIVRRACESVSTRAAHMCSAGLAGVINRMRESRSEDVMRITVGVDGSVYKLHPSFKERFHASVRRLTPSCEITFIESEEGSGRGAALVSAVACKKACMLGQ
# Zucker obese fa/fa rats = assay: Oral Glucose Tolerance Test (OGTT); type: in vivo, rat; conditions: 10 mg/kg, given orally 120 minutes before glucose 2 g/kg; Zucker obese fa/fa rats on high fat diet
# Procedure: Oral glucose tolerance tests were done on conscious Zucker obese fa/fa rats (age 12-13 weeks or older) fed a high fat diet (45% kcal fat) for at least two weeks prior to experimentation. The animals were fasted for 2 hours before use for experiments. A test compound or a vehicle was given orally 120 minutes before oral administration of a glucose solution at a dose of 2 g/kg body weight. Blood glucose levels were measured using a Accucheck glucometer from tail bled samples taken at different time points before and after administration of glucose (time course of […]). A time curve of the blood glucose levels was generated and the area-under-the-curve (AUC) for 120 minutes was calculated (the time of glucose administration being time zero). Percent reduction in glucose excursion was determined using the AUC in the vehicle-control group as zero percent reduction.
melting point [°C],SMILES,EC50 [1] [nM],"OGTT activity (percent reduction in glucose excursion, AUC) (Zucker obese fa/fa rats) [%]"
125.7,"Cc1cnc(NC(=O)c2cc(Oc3ccc(C(=O)N4CCC4)nc3)cc(OC(C)C)c2)cn1 [Example 37, 3-{[6-(Azetidin-1-ylcarbonyl)pyridin-3-yl]oxy}-5-[(1-methylethyl)oxy]-N-(5-methylpyrazin-2-yl)benzamide]",–,–
100.6,"Cc1cnc(NC(=O)c2cc(Oc3cnc(C(=O)N4CCC4)cn3)cc(O[C@@H](C)CO)c2)cn1 [Example 59, 3-{[5-(Azetidin-1-ylcarbonyl)pyrazin-2-yl]oxy}-5-{[(1S)-2-hydroxy-1-methylethyl]oxy}-N-(5-methylpyrazin-2-yl)benzamide]",–,–

SMILES,melting point [°C],EC50 [1] [nM],"OGTT activity (percent reduction in glucose excursion, AUC) (Zucker obese fa/fa rats) [%]"
"COC[C@H](C)Oc1cc(Oc2ccc(C(=O)N3CCC3)nc2)cc(C(=O)Nc2ccn(C)n2)c1 [Example 3, 3-{[6-(Azetidin-1-ylcarbonyl)pyridin-3-yl]oxy}-5-{[(1S)-1-methyl-2-(methyloxy)ethyl]oxy}-N-(1-methyl-1H-pyrazol-3-yl)benzamide]",132.7,31,54
